Consider six molecules from paper PMC9658812, “New Pyrimidine-5-Carbonitriles as COX-2 Inhibitors: Design, Synthesis, Anticancer Screening, Molecular Docking, and In Silico ADME Profile Studies” (Molecules, 2022).

SMILES strings stand for the structures. “And” between values parts separate entries of the source, which are not always exact repeats. Equal values may be shown once. Read-outs that look alike come from different tables or passages of the source.

For one series, the system named is COX-2. The settings on record: cited from earlier work.
Series [1] has as its system gastric MGC-803 cancer cells. On the set-up: method as in PMID 25610955, PMID 25180925. The settings on record: cited from earlier work.
Another series has as its target T1, human COX-2 (Homo sapiens, UniProt P35354).
T1 construct: purchased Biovision, Zurich, Switzerland
T1 sequence (P35354 18-604): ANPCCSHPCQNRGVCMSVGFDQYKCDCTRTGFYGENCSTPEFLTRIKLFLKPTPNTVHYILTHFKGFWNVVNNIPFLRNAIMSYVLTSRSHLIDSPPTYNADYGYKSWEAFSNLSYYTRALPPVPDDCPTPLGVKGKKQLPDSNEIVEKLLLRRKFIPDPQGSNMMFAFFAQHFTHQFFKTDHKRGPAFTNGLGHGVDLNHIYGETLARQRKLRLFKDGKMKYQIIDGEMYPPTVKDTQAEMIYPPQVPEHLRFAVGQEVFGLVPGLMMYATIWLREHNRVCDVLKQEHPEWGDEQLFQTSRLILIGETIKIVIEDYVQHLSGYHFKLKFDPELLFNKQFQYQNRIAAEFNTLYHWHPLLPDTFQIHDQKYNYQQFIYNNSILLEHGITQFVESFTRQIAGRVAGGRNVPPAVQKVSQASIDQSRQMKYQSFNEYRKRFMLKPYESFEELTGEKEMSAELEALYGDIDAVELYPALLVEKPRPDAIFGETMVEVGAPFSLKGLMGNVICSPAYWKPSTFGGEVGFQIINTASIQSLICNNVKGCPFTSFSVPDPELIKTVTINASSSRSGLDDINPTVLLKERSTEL
As to the kind of experiment: COX-2 inhibition assay (fluorometric inhibitor screening kit). The series is classed as biochemical. An excerpt:
Fluorometric inhibitor screening kits (Biovision, Zurich, Switzerland) were utilized for the COX-2 enzyme inhibition test, as described before.

The subject of series [2] is MCF-7 cells. The experiment in a line: Cell cycle analysis by flow cytometry (PI). It is filed as cell-based. The method, then: These findings imply that compound 5d’s cytotoxicity was proven by the arrest of cell growth at the G2/M phase.
Compound 5d was applied to MCF-7 cell culture for 48 h at its IC50 concentration. Briefly, cells were rinsed twice with phosphate buffer saline (PBS) (ice-cold) and then centrifuged and/or fixed in 70% (v/v) ethanol (ice-cold). The solution was rinsed with PBS, suspended with RNase (0.1 mg/mL), stained with propidium iodide (PI) ([…]), and analyzed via flow cytometry utilizing the FACS Calibur (Becton Dickinson, Franklin Lakes, NJ, USA). Through Cell-Quest software (Becton Dickinson), cell cycle distributions were calculated.
A general note: A flow cytometer gives signals particle by particle.

Series [3] concerns MCF-7 cells. The experiment in a line: Apoptosis determination by Annexin-V assay. It is filed as cell-based. The settings on record: MCF-7, IC50 concentration. The method, then:
A biparametric cytofluorimetric analysis was performed using the Annexin-V assay to verify the ability of compound 5d at its IC50 concentration to trigger apoptosis. When compared to the control, compound 5d increased the proportion of early and late apoptotic cells in MCF-7 cells by nearly 13- and 60-fold, respectively, when compared to control cells, which had 0.53% and 0.25% early and late apoptotic cells, respectively.
The MCF-7 cell culture was treated with an IC50 of compound 5d for 48 h. The cancer cells were then suspended in PBS, centrifuged, and preserved in 99% ethanol (ice-cold). Cells suspended in ethanol were centrifuged for 5 min before being suspended in PBS and re-centrifuged once again. The supernatant was decanted, and the cells were stained at 37 °C with annexin V fluorescein isothiocyanate and PI using the apoptosis detection kit (BD Biosciences, San Jose, CA, USA) following the manufacturer’s instructions. A flow cytometer was used to examine the binding of annexin V-FITC and PI. The FACS Calibur was used to assess the cells, and Phoenix Flow Systems and Verity Software House were employed to calculate their distributions.

For series [4], the system named is MCF7 cells (breast carcinoma). The experiment in a line: MTT cytotoxicity assay, MCF7. (Tetrazolium assays rely on reduction of a dye to a coloured formazan, in cell work by metabolically active cells.)
Description: (§1) Breast carcinoma (MCF-7), renal cell carcinoma (A498), lung cancer (A549), and liver carcinoma (HepG2) cell lines, in addition to non-tumorigenic WI-38 cell lines, were collected from the American Type Culture Collection. The cells were grown in DMEM (Invitrogen/Life Technologies) containing 1% penicillin-streptomycin, 10 µg/mL of insulin (Sigma), and 10% FBS (Hyclone).
(§2) To check the possible cellular toxicity, synthesized compounds were subjected to the MTT [3-(4,5-dimethylthiazol-2-yl)-2,5-diphenyltetrazolium bromide] assay against the MCF7, A549, A498, and HepG2 cell lines. […] Later, 2.0–3.0 mL of Trypsin EDTA solution was added into the flask containing the cell layers for 5–15 min to disperse the cell layer, which was observed through an inverted microscope. By gently pipetting, aspirated cells were added into a 6.0–8.0 mL growth medium. […] An amount of 20 μL of a 5-mg/mL MTT solution was applied after a 24-h drug-treatment period, and it was incubated for 4 h. To dissolve the produced purple formazan, each well received 100 μL of dimethyl sulfoxide (DMSO).
The test system of series [5] is A549 cells (non-small-cell lung cancer). As to the kind of experiment: MTT cytotoxicity assay, A549.
Description: as §1, §2
In series [6] the test system is A498 cells (renal carcinoma). The experiment in a line: MTT cytotoxicity assay, A498.
Description: as §1, §2
Series [7] has as its system HepG2 cells (liver carcinoma). The experiment in a line: MTT cytotoxicity assay, HepG2.
Description: as §1, §2
Series [8] concerns WI-38 cells (normal cell derived from lung tissue). As to the kind of experiment: Cytotoxicity on non-tumorigenic WI-38 cell line. As to conditions: Homo sapiens, WI-38, read-out: WI-38 IC50.
Description: as §1, §2
In another series the test system is MCF-7. As to conditions: breast cancer cell line; cited from earlier work.
The test system of series [9] is MDA-MB-231 breast cancer cell line. On the set-up: method as in PMID 28486908. As to conditions: cited from earlier work.
The next series relates to HeLa cell lines. On the set-up: method as in doi:10.1007/s00044-012-0051-9. The settings on record: anticancer activity in vitro; cited from earlier work.
The mark [10] stands for this setting: MCF-7, compound at its IC50 concentration, 48 h.

Consider `CS(=O)(=O)c1ccc(C2=C(c3ccccc3)C(=O)OC2)cc1` [rofecoxib], for which, in the series with COX-2, the IC50 was 292 nM.

For `C#CCSc1nc(NC(N)=S)c(C#N)c(-c2cc(OC)c(OC)c(OC)c2)n1` [III], in series [1], the IC50 was 4010 nM.

Take `COc1ccc(-c2nc(NS(=O)(=O)c3ccc(C(F)(F)F)cc3)nc(OC)c2C#N)cc1` [Compound 5d, N-(5-Cyano-4-methoxy-6-(4-methoxyphenyl)pyrimidin-2-yl)-4-(trifluoromethyl)benzene sulfonamide]: the melting point is 291 to 293 °C. Further, the inhibition at 10 µM on human COX-2 (10^−5 M, mean of three experiments ± SD, read-out: COX-2 Inhibition (%)) came out at 41.8 ± 0.91%. Moreover, the inhibition at 1 µM at human COX-2 (10^−6 M, mean of three experiments ± SD, read-out: COX-2 Inhibition (%)) was determined as 35.9 ± 0.72%. The inhibition at 0.1 µM on human COX-2 (10^−7 M, mean of three experiments ± SD, read-out: COX-2 Inhibition (%)) worked out at 23.1 ± 0.25%. Further, at human COX-2 (10^−8 M, mean of three experiments ± SD, read-out: COX-2 Inhibition (%)), the inhibition at 0.01 µM turned out to be 76.1 ± 1.05%. The inhibition at 0.001 µM at human COX-2 (10^−9 M, mean of three experiments ± SD, read-out: COX-2 Inhibition (%)) worked out at 60.7 ± 1.09%. The 50% inhibitory concentration (IC50) at human COX-2 (human COX-2 assay kit, three experiments) was 160 ± 10 nM. In the series with MCF-7 cells [2] (MCF-7, IC50 concentration), the “accumulation of cell population in G2/M phase compared to control” value was 5 times and the “accumulation of cell population in sub-G1 phase compared to control” value is given as 16 times. Also, in the series on MCF-7 cells [2] (setting [10]), the “%G0-G1” value stood at 24.39 ± 3.01 %; the “%G2/M” value worked out at 58.37 ± 0.52 %; the “%Pre-G1” value was 26.16 ± 1.53%; the “%S” value is 16.23% and 16.23 ± 1.23 %. In the series with MCF-7 cells [3], the “increase of proportion of early apoptotic cells versus control” value is given as around 13 fold, the “increase of proportion of late apoptotic cells versus control” value is on record as around 60 fold and the “proportion of necrosis versus control” value is on record as “three-fold”. In the series on MCF-7 cells [3] (48 h), the “Apoptosis Early” value was 6.78 ± 0.25%, the “Apoptosis Late” value was 14.96 ± 1.10% and the Necrosis worked out at 2.83 ± 0.47%. Moreover, the IC50 in series [4] (Homo sapiens, MCF7, 24 h, read-out: Cytotoxicity IC50 MCF7) turned out to be 1 ± 0.03 nM. In series [4] (versus doxorubicin), the “fold more cytotoxic than doxorubicin, MCF7” value is “about 9 fold”. In addition, the IC50 in series [5] (Homo sapiens, A549, 24 h, read-out: Cytotoxicity IC50 A549) came out at 1 ± 0.05 nM. Also, the “fold more cytotoxic than doxorubicin, A549” value in [5] (versus doxorubicin) is reported as around 13 fold. For the same molecule, in series [6] (Homo sapiens, A498, 24 h, read-out: Cytotoxicity IC50 A498), the IC50 is 2 ± 0.08 nM. In addition, in series [6] (versus doxorubicin), the “fold more cytotoxic than doxorubicin, A498” value is around 3.5 fold. For the same molecule, the IC50 in series [7] (Homo sapiens, HepG2, 24 h, read-out: Cytotoxicity IC50 HepG2) turned out to be 9 ± 0.34 nM. Besides, the “fold more cytotoxic than doxorubicin, HepG2” value in series [7] (versus doxorubicin) is recorded as around 2.8 fold. Besides, the IC50 in [8] worked out at 91290 ± 470 nM.

As to `COc1ccc(-c2nc(N3N=C(c4ccc(F)cc4)CCC3=O)n(C)c(=O)c2C#N)cc1` [Compound V], the IC50 in the series with MCF-7 was 2560 nM; in [9] it was 3430 nM.

As to `NS(=O)(=O)c1ccc(-c2nc(Cl)cc(NCc3cccs3)n2)cc1` [VII], the half-maximal inhibitory concentration (IC50) in the series with COX-2 (COX-2 inhibitor potency) was 12.7 nM.

Consider `COc1ccc(-c2nc(Nc3ccc(S(N)(=O)=O)cc3)n3c(C)nnc3c2C#N)cc1OC` [II], for which the half-maximal inhibitory concentration (IC50) in the series with HeLa cell lines was 39 nM.

One may read the IC50 as the concentration that inhibits the measured activity by half. What is called inhibition is how much of the control response was suppressed. The melting point is the temperature of the solid-liquid transition.
